Reference: patent publication US10781183B2, “Small molecule inducers of reactive oxygen species and inhibitors of mitochondrial activity” (The Regents of the University of Michigan, priority 2016, dated 2020)

Experiments:
MiaPaCa-2 xenograft = MiaPaCa-2 xenograft studies; format: in vivo, NOD/SCID mice
Protocol: (§1) MiaPaCa-2 cells (2.0×10^6) in a 100 μL suspension of RPMI1640 was injected subcutaneously into dorsal flank of 6-week NOD/SCID mice. Tumor size was monitored twice a week through caliper measurement using the following equation: V=d^2×D/2, where d represents width and D represents length of the tumor. In study 1, mice were randomly grouped (n=5 per group) when average tumor size reached 65 mm^3. Daily treatment was given at five days on two days off cycles. QD325 was given at 5 mg/kg in 100 μL vehicle (5% DMSO, 60% Propylene glycol, 35% Saline) by intraperitoneal injection. […] Unpaired t test was performed for data analysis and p<0.05 was considered significant. […] Procedures for study 2 with gemcitabine treatment are detailed in supplemental information.
(§2) On necropsy, tumors, hearts, kidneys, livers, lungs, spleens and pancreases were collected, fixed in 10% neutral buffered formalin, embedded in paraffin, and sectioned. Sections ([…]) were stained with hematoxylin and eosin to facilitate histologic examination. For Ki67 expression level, immunohistochemistry staining was performed on sections with Ki67 antibody. Embedding, sectioning and staining of samples were performed by ULAM pathology core for animal research at the University of Michigan. Representative images were taken on Olympus IX83 microscope with 20× magnification.

[1] = Systemic toxicity in MiaPaCa-2 engrafted mice
Protocol: as §1, §2

O=C1C(Nc2ccc(-c3ccccc3)cc2)=CC(=O)c2ncncc21 [QD325, 6-([1,1′-biphenyl]-4-ylamino)quinazoline-5,8-dione]
average tumor size at the end of the 48-day treatment period (MiaPaCa-2 xenograft; QD325 5 mg/kg five times a week, gemcitabine 15 mg/kg once a week, control 1503±189 mm^3): 248±72 mm^3 | growth of tumors (MiaPaCa-2 xenograft; QD325 5 mg/kg i.p. five times a week, treatment period of 44 days): significantly delayed growth of tumors | average tumor size on day 44 (MiaPaCa-2 xenograft; QD325 5 mg/kg i.p. five times a week, n=5, control 1291±168 mm^3): 308±72 mm^3 | NQO1, HO-1, CHOP and GRP78 protein levels in tumor lysates (MiaPaCa-2 xenograft; QD325 treated tumors vs vehicle controls (FIG. 12E)): significantly upregulated | growth of tumors at higher doses (MiaPaCa-2 xenograft; after day 44, dose increased from 5 to 20 mg/kg until day 67, two mice per group): able to delay growth of the tumors | Ki67 levels in tumor tissues (MiaPaCa-2 xenograft; immunohistochemistry of xenograft sections, QD325 5 mg/kg (FIG. 12D)): decreased Ki67 levels | body weight of engrafted mice ([1]; QD325 5 mg/kg (FIG. 12B)): not affected | body weight of engrafted mice ([1]; QD325 5-20 mg/kg (FIG. 13B)): not affected | systemic toxicity at higher doses ([1]; doses as high as 20 mg/kg): no systemic toxicity was observed | histopathology of H&E stained organ sections ([1]; liver, kidney, heart, lung, spleen and pancreas, QD325 5 mg/kg (FIG. 12C)): did not reveal major histopathological changes
